Experimental findings from the NIST ThermoML archive (doi:10.1016/j.jct.2004.07.012) are described below.

± gives the expanded uncertainty stated by the source.

For this data set the following is noted: 298.15 K; 101.33 kPa; Liquid.

The mass density is mass per unit of volume.

In the case of `ClCCCl` [1,2-dichloroethane], the mass density is on record as 1246.34 ± 0.6 kg/m3.

With `ClCCBr` [1-bromo-2-chloroethane], the mass density came out at 1727.01 ± 2.2 kg/m3.

Take `ClCBr` [bromochloromethane]: the mass density is recorded as 1924.55 ± 1.9 kg/m3.

For `BrCBr` [dibromomethane], the mass density is 2478.36 ± 3.1 kg/m3.

For `CCCO` [propan-1-ol], the mass density is 799.74 ± 0.49 kg/m3.
